± gives the expanded uncertainty stated by the source.
What was measured:
[1] = refractive index (Na D-line) (dimensionless); xn = mol fraction of the nth substance listed; details: 100 kPa, Liquid, Standard Abbe refractometry
[2] = xn = mol fraction of the nth substance listed; details: 100 kPa, Liquid, Falling or rolling sphere viscometry
[3] = refractive index (Na D-line) (dimensionless); details: 100 kPa, Liquid, Standard Abbe refractometry
[4] = 100 kPa, Liquid, Falling or rolling sphere viscometry

CCCCn1cc[n+](C)c1.F[B-](F)(F)F [1-butyl-3-methylimidazolium tetrafluoroborate] + Nc1ccccc1
x1 = 1
Details	refractive index, 293.15 K	refractive index, 303.15 K	refractive index, 313.15 K	refractive index, 323.15 K	viscosity, 293.15 K [mPa·s]	viscosity, 303.15 K [mPa·s]	viscosity, 313.15 K [mPa·s]	viscosity, 323.15 K [mPa·s]
[1]	1.42144 ± 0.0011	1.41913 ± 0.0011	1.41621 ± 0.0011	1.4133 ± 0.0011	–	–	–	–
[2]	–	–	–	–	135.7 ± 9.2	80.4 ± 5	51.4 ± 3.1	34.92 ± 2.1

Nc1ccccc1 [aniline]
Details	refractive index, 293.15 K	refractive index, 303.15 K	refractive index, 313.15 K	refractive index, 323.15 K	viscosity, 293.15 K [mPa·s]	viscosity, 303.15 K [mPa·s]	viscosity, 313.15 K [mPa·s]	viscosity, 323.15 K [mPa·s]
[3]	1.58481 ± 0.001	1.58152 ± 0.001	1.57823 ± 0.001	1.57494 ± 0.001	–	–	–	–
[4]	–	–	–	–	4.38 ± 0.26	3.24 ± 0.2	2.47 ± 0.15	1.95 ± 0.12

Nc1ccccc1 [aniline] + CCCCn1cc[n+](C)c1.F[B-](F)(F)F
Details	refractive index, [1]	viscosity, [2] [mPa·s]
293.15 K, x2 = 0	1.58481 ± 0.001	4.38 ± 0.26
293.15 K, x2 = 0.1001	1.55273 ± 0.0024	7.66 ± 0.82
293.15 K, x2 = 0.4991	1.47256 ± 0.0022	36.82 ± 2.4
293.15 K, x2 = 0.6032	1.45814 ± 0.0017	50.14 ± 3.3
293.15 K, x2 = 0.7021	1.44443 ± 0.0016	65.33 ± 4.3
293.15 K, x2 = 0.7907	1.43496 ± 0.0014	81.22 ± 5.4
293.15 K, x2 = 0.9026	1.42669 ± 0.0012	104.99 ± 7.2
303.15 K, x2 = 0	1.58152 ± 0.001	3.24 ± 0.2
303.15 K, x2 = 0.1001	1.54951 ± 0.0024	5.46 ± 0.51
303.15 K, x2 = 0.4991	1.46852 ± 0.0022	22.05 ± 1.4
303.15 K, x2 = 0.6032	1.4544 ± 0.0017	31.1 ± 2.1
303.15 K, x2 = 0.7021	1.44151 ± 0.0016	40.82 ± 2.7
303.15 K, x2 = 0.7907	1.43264 ± 0.0014	50.78 ± 3.3
303.15 K, x2 = 0.9026	1.42433 ± 0.0012	66.19 ± 4.3
313.15 K, x2 = 0	1.57823 ± 0.001	2.47 ± 0.15
313.15 K, x2 = 0.1001	1.54532 ± 0.0024	4.04 ± 0.35
313.15 K, x2 = 0.4991	1.46448 ± 0.0022	14.67 ± 0.94
313.15 K, x2 = 0.6032	1.45067 ± 0.0016	20.79 ± 1.4
313.15 K, x2 = 0.7021	1.43859 ± 0.0015	26.92 ± 1.8
313.15 K, x2 = 0.7907	1.43031 ± 0.0013	33.47 ± 2.2
313.15 K, x2 = 0.9026	1.42197 ± 0.0013	42.66 ± 2.7
323.15 K, x2 = 0	1.57494 ± 0.001	1.95 ± 0.12
323.15 K, x2 = 0.1001	1.54114 ± 0.0031	3.08 ± 0.23
323.15 K, x2 = 0.2028	1.51499 ± 0.0022	4.56 ± 0.33
323.15 K, x2 = 0.4991	1.46044 ± 0.002	10.52 ± 0.68
323.15 K, x2 = 0.6032	1.44694 ± 0.0016	14.73 ± 0.98
323.15 K, x2 = 0.7021	1.43567 ± 0.0015	18.58 ± 1.2
323.15 K, x2 = 0.7907	1.42799 ± 0.0013	23.06 ± 1.5
323.15 K, x2 = 0.9026	1.41961 ± 0.0013	29.65 ± 1.9

CCn1cc[n+](C)c1.F[B-](F)(F)F [1-ethyl-3-methylimidazolium tetrafluoroborate]
Details	refractive index, 293.15 K	refractive index, 303.15 K	refractive index, 313.15 K	refractive index, 323.15 K	viscosity, 293.15 K [mPa·s]	viscosity, 303.15 K [mPa·s]	viscosity, 313.15 K [mPa·s]	viscosity, 323.15 K [mPa·s]
[3]	1.41509 ± 0.0011	1.41117 ± 0.0011	1.40802 ± 0.0011	1.40512 ± 0.0011	–	–	–	–
[4]	–	–	–	–	45.69 ± 2.8	30.54 ± 1.9	21.82 ± 1.3	16.42 ± 1

CCCCn1cc[n+](C)c1.F[B-](F)(F)F [1-butyl-3-methylimidazolium tetrafluoroborate]
Details	refractive index, 293.15 K	refractive index, 303.15 K	refractive index, 313.15 K	refractive index, 323.15 K	viscosity, 293.15 K [mPa·s]	viscosity, 303.15 K [mPa·s]	viscosity, 313.15 K [mPa·s]	viscosity, 323.15 K [mPa·s]
[3]	1.42144 ± 0.0011	1.41913 ± 0.0011	1.41621 ± 0.0011	1.4133 ± 0.0011	–	–	–	–
[4]	–	–	–	–	135.7 ± 9.2	80.4 ± 5	51.4 ± 3.1	34.92 ± 2.1

CCn1cc[n+](C)c1.F[B-](F)(F)F [1-ethyl-3-methylimidazolium tetrafluoroborate] + Nc1ccccc1
x1 = 1
Details	refractive index, 293.15 K	refractive index, 303.15 K	refractive index, 313.15 K	refractive index, 323.15 K	viscosity, 293.15 K [mPa·s]	viscosity, 303.15 K [mPa·s]	viscosity, 313.15 K [mPa·s]	viscosity, 323.15 K [mPa·s]
[1]	1.41509 ± 0.0011	1.41117 ± 0.0011	1.40802 ± 0.0011	1.40512 ± 0.0011	–	–	–	–
[2]	–	–	–	–	45.69 ± 2.8	30.54 ± 1.9	21.82 ± 1.3	16.42 ± 1
